One data set relates to male Sprague Dawley rats. The data set is described as follows: Clinical observations of rats during administration of propofol analogs in the pharmacokinetics study. The following applies: time post-10 min i.v. infusion; 0.168 mmol/Kg. The method, then:
(§1) Blood samples were to be taken pre-dose, during dose and post dose at designated intervals, with the blood quickly processed and stored at −70° C. until analysis.
(§2) Formulations were prepared on the morning of the dosing day and each was passed through a 0.22 μm filter prior to being administered to animals. A standard dose of 0.168 mmol/Kg per analog was administered to each of the rats. […] Analog stability in the formulations was verified by preparing each formulation and harvesting 200 μL aliquots at 0, 1, 2 and 8 hr while standing at room temperature. After harvesting, each sample was immediately frozen in dry ice until analysis; concentrations of test compounds in the samples were examined by HPLC-UV.
(§3) The animals were surgically prepared with indwelling cannula, double cannulation in carotid artery and jugular vein for i.v. infusion. The anesthetic pentobarbital was used during the surgery, and the animals were allowed to recover 3-5 days after surgery before the formulation was dosed. The dose formulation was administered intravenously via the jugular vein cannula. The 16.8 μmol/mL formulation was administered i.v. at a rate of 1 mL/Kg/min for 10 min.

Data set [1] can be described thus: Pharmacokinetics: plasma concentrations of prodrug and propofol after intravenous infusion (LC/MS/MS). Particulars: for AUClast: to last detected concentration; for Mean Concentration of Propofol in Rat Plasma After Intravenous Administration: analyte = propofol released from the administered compound; for Pro-drug behaviour (release of propofol in vivo): rats, releasing the propofol in a matter of minutes after infusion. The method, then:
as §1, §2, §3
Approximately 0.20 mL blood was collected at each designated time point from carotid artery via a catheter. A total of 12 plasma samples were taken from each animal: 1 pre-dose; 2 during the dose (5 into the 10 min infusion and one just prior termination of the 10 min infusion) and 9 post-infusion at 2, 5, 15, 30 min and 1, 2, 3, 4, and 6 hr post-dose. All blood samples were transferred into plastic microcentrifuge tubes containing 5 μL of K2-EDTA (0.5M) as anti-coagulant and placed on ice until processed for plasma. Blood samples were processed for plasma by centrifugation at approximately 5° C. Plasma samples were then stored in 1.5 mL tubes, quick frozen over dry ice and kept at −70±10° C. until LC/MSMS analysis.
For each, a minimum of 6 standard point curve runs in duplicates, and minimum of 5 standards were back calculated to within ±20% of their nominal concentrations. The LLOQ of each test article in plasma was established and 6 QC samples were included in assay runs of samples to ensure assay performance.
Data Analysis. Plasma concentration versus time data was analyzed by non-compartmental approaches using the WinNonlin software program (version 5.2, Pharsight, Mountain View, Calif.) and the pharmacokinetic parameters T½, CL, Vss, AUC(0-t), AUC(0-inf), MRT, and graphs of plasma concentration versus time calculated for each.

Data set [2] is described as follows: Solubility determination in D2O by 1H NMR with DSS internal standard.
Method: Thus the soapy-like solutions obtained were diluted until opalescent and diluted further until the opalescence visually disappeared.
Setting [3] is: analyte = administered compound, Time (h) 0.
[4] abbreviates: analyte = administered compound, Time (h) 0.083.
The mark [5] stands for this setting: analyte = administered compound, Time (h) 0.167.
Where [6] appears, read: analyte = administered compound, Time (h) 0.2.
[7] abbreviates: analyte = administered compound, Time (h) 0.25.
Where [8] appears, read: analyte = administered compound, Time (h) 0.417.
The mark [9] stands for this setting: analyte = administered compound, Time (h) 0.667.
Where [10] appears, read: analyte = administered compound, Time (h) 1.166.
[11] abbreviates: analyte = administered compound, Time (h) 2.166.
The mark [12] stands for this setting: analyte = administered compound, Time (h) 3.166.
[13] abbreviates: analyte = administered compound, Time (h) 4.166.
Where [14] appears, read: analyte = administered compound, Time (h) 6.166.
Where [15] appears, read: analyte = administered compound, extrapolated to infinity.
The mark [16] stands for this setting: analyte = administered compound, rat plasma, IV infusion.
Setting [17] is: analyte = administered compound.

Results on two molecules are retold here after patent publication US9023813B2 (Nutek Pharma Ltd., priority 2012, dated 2015).

Each structure is given as a SMILES string.

For `CC(C)c1cccc(C(C)C)c1OC(=O)OCCCO[C@@H]1O[C@H](CO)[C@@H](OC2O[C@H](CO)[C@@H](O)[C@H](O)[C@H]2O)[C@H](O)[C@H]1O` (stereo partly shown) [Compound 25], in the data set on male Sprague Dawley rats, the Rats recovered at entry is “recovered at about 35 min”. Also, the Rats soporous at result with male Sprague Dawley rats is reported as “Rats soporous at about 7 min and”. Moreover, the “Mean concentration of prodrug and propofol in rat plasma after intravenous infusion administration” value in data set [1] (setting [3]) is “BQL”; in data set [1] (setting [4]) it was 34401 nM; in data set [1] (setting [5]), 68360 nM; in data set [1] (setting [6]), 22658 nM; in data set [1] (setting [7]), 9074 nM; in data set [1] (setting [8]), 997 nM. The “Mean concentration of prodrug and propofol in rat plasma after intravenous infusion administration” value in data set [1] (setting [9]) is 97.1 nM; in data set [1] (setting [10]) it was 16.2 nM; in data set [1] (setting [11]) it was 2.09 nM; in data set [1] (setting [12]), “BQL”; in data set [1] (setting [13]) it was “BQL”; in data set [1] (setting [14]), “BQL”. In addition, in data set [1] (setting [15]), the AUCinf was 8.574 µM·h. In addition, the MRTinf in data set [1] (setting [15]) was 4.62 min. Further, in data set [1] (setting [16]), the Cmax is 68400 nM. For the same molecule, the Tmax in data set [1] (setting [16]) is 10.2 min. In data set [1] (setting [16]), the t1/2 was found to be 15.2 min. Also, the AUClast in data set [1] (setting [17]) came out at 8.571 µM·h. Moreover, the CLp in data set [1] (analyte = administered compound, total body clearance, dose/AUCinf) came to 337 mL/min/kg. In addition, the volume of distribution (Vdss) in data set [1] (analyte = administered compound, volume of distribution) was determined as 1.51 L/kg. Further, the “Mean Concentration of Propofol in Rat Plasma After Intravenous Administration” value in data set [1] (Time (h) 0) is recorded as “BQL”. Moreover, in data set [1], the “Pro-drug behaviour (release of propofol in vivo)” value is reported as “very efficient pro-drugs”. Further, the Relative solubility in data set [2] is listed as over 20. This molecule returned a solubility in data set [2] (D2O, water, thermodynamic from solid) of over 20 mM.
In the case of `CC(C)c1cccc(C(C)C)c1OC(=O)OCCO[C@H]1O[C@H](CO)[C@@H](O)[C@H](O)[C@H]1O` [Compound 32], in the data set on male Sprague Dawley rats, the Rats recovered at result is recorded as “recovered at about 26 min”. Moreover, the “Mean concentration of prodrug and propofol in rat plasma after intravenous infusion administration” value in data set [1] (setting [3]) was “BQL”; in data set [1] (setting [4]) it was 4.88 nM; in data set [1] (setting [5]), 4.97 nM; in data set [1] (setting [6]) it was 2.68 nM; in data set [1] (setting [7]), “BQL”; in data set [1] (setting [8]), “BQL”. The “Mean concentration of prodrug and propofol in rat plasma after intravenous infusion administration” value in data set [1] (setting [9]), in data set [1] (setting [10]), in data set [1] (setting [11]), in data set [1] (setting [12]), in data set [1] (setting [13]) and in data set [1] (setting [14]) was “BQL” throughout. In addition, in data set [1] (setting [17]), the AUClast came to 0.000657 µM·h. Moreover, the “Mean Concentration of Propofol in Rat Plasma After Intravenous Administration” value in data set [1] (Time (h) 0) is given as “BQL”. The “Pro-drug behaviour (release of propofol in vivo)” value in data set [1] is “very efficient pro-drugs”. Besides, in data set [2], the Relative solubility is recorded as 12.0.

The Cmax is the peak of the concentration-time curve. What is called Tmax is the time from dosing to the highest level. A word on the Vdss: it is the apparent volume that relates the amount in the body to the concentration in plasma or blood. As a reminder, the solubility is the dissolved amount per volume that the medium holds.
